Measurements published in patent US9695155B2, “Herbicidal substituted pyrimidinyloxy benzene compounds” (E. I. DU PONT DE NEMOURS AND COMPANY, priority 2013, dated 2017).

What was measured:
[1] = test system: ragweed; assay: Test C preemergence; assay type: in vivo, Ambrosia elatior; conditions: for Ragweed plant response rating: preemergence
In short: (§1)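 Seeds are planted in blended loam soil and sand and treated preemergence, while seedlings in a peat moss/vermiculite medium receive postemergence sprays at 2 to 18 cm height. All plants stay in the greenhouse for 13 to 15 days before visual comparison with controls on a 0–100 scale.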

[2] = test system: wheat, winter; assay: Test C preemergence; assay type: in vivo, Triticum aestivum; conditions: for Wheat plant response rating: preemergence
In short: as §1

[3] = test system: ragweed; assay: Test A postemergence; assay type: in vivo, Ambrosia elatior; conditions: 0 to 100 scale where 0 is no effect and 100 is complete control
In short: (§2)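 Visual injury scored 0–100 (100 = complete control) against untreated controls about 10 days after treatment in a greenhouse. Test chemicals, formulated with surfactant in non-phytotoxic solvent, were sprayed on soil preemergence or on 2-10 cm, one- to two-leaf plants postemergence.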

[4] = test system: waterhemp; assay: Test C preemergence; assay type: in vivo, Amaranthus rudis; conditions: for Waterhemp plant response rating: preemergence
In short: as §1

[5] = test system: soybean; assay: Test C preemergence; assay type: in vivo, Glycine max; conditions: for Soybean plant response rating: preemergence
In short: as §1

[6] = test system: velvetleaf; assay: Test C preemergence; assay type: in vivo, Abutilon theophrasti; conditions: for Velvetleaf plant response rating: preemergence
In short: as §1

[7] = test system: large (Lg) crabgrass; assay: Test C preemergence; assay type: in vivo, Digitaria sanguinalis; conditions: for Crabgrass, Large plant response rating: preemergence
In short: as §1

[8] = test system: giant foxtail; assay: Test C preemergence; assay type: in vivo, Setaria faberii; conditions: for Foxtail, Giant plant response rating: preemergence
In short: as §1

[9] = test system: Italian ryegrass; assay: Test A preemergence; assay type: in vivo, Lolium multiflorum
In short: as §2

[10] = test system: johnsongrass; assay: Test C preemergence; assay type: in vivo, Sorghum halepense; conditions: for Johnsongrass plant response rating: preemergence
In short: as §1

[11] = test system: Italian ryegrass; assay: Test C preemergence; assay type: in vivo, Lolium multiflorum; conditions: for Ryegrass, Italian plant response rating: preemergence
In short: as §1

[12] = test system: kochia; assay: Test A postemergence; assay type: in vivo, Kochia scoparia; conditions: 0 to 100 scale where 0 is no effect and 100 is complete control
In short: as §2

[13] = test system: galium; assay: Test A postemergence; assay type: in vivo, Galium aparine; conditions: 0 to 100 scale where 0 is no effect and 100 is complete control
In short: as §2

[14] = test system: kochia; assay: Test A preemergence; assay type: in vivo, Kochia scoparia
In short: as §2

[15] = test system: ragweed; assay: Test A preemergence; assay type: in vivo, Ambrosia elatior
In short: as §2

[16] = test system: oilseed rape; assay: Test C preemergence; assay type: in vivo, Brassica napus; conditions: for Oilseed Rape plant response rating: preemergence
In short: as §1

[17] = test system: blackgrass; assay: Test C preemergence; assay type: in vivo, Alopecurus myosuroides; conditions: for Blackgrass plant response rating: preemergence
In short: as §1

[18] = test system: pigweed; assay: Test C preemergence; assay type: in vivo, Amaranthus retroflexus; conditions: for Pigweed plant response rating: preemergence
In short: as §1

[19] = test system: barnyardgrass; assay: Test C preemergence; assay type: in vivo, Echinochloa crus-galli; conditions: for Barnyardgrass plant response rating: preemergence
In short: as §1

[20] = 16 g ai/ha, scale 0 to 100 (0 no effect, 100 complete control)
[21] = 62 g ai/ha, scale 0 (no effect) to 100 (complete control)
[22] = 125 g ai/ha, scale 0 (no effect) to 100 (complete control)
[23] = Preemergence, 31 g ai/ha, scale 0 to 100, 0 no effect, 100 complete control
[24] = 125 g ai/ha, 0 to 100 scale where 0 is no effect and 100 is complete control
[25] = 500 g ai/ha, 0 to 100 scale, 0 no effect, 100 complete control, approx. 10 days

Structure (SMILES): CC(C)c1cnn(-c2c(C#N)cccc2Oc2ncc(Cl)cn2)c1 [Compound 85]
- Ragweed plant response rating [1, 20]: 0
- Ragweed plant response rating [1, 21]: 50
- Ragweed plant response rating [1, 22]: 65
- Plant response rating, Ragweed [1, 23]: 0
- Wheat plant response rating [2, 20]: 0
- Wheat plant response rating [2, 21]: 0
- Wheat plant response rating [2, 22]: 5
- Plant response rating, Wheat [2, 23]: 0
- Plant response rating, Ragweed ([3]; 125 g ai/ha): 50
- Plant response rating, Ragweed ([3]; 500 g ai/ha): 60
- Waterhemp plant response rating [4, 20]: 55
- Waterhemp plant response rating [4, 21]: 100
- Waterhemp plant response rating [4, 22]: 100
- Plant response rating, Waterhemp [4, 23]: 85
- Soybean plant response rating [5, 20]: 0
- Soybean plant response rating [5, 21]: 40
- Soybean plant response rating [5, 22]: 60
- Plant response rating, Soybean [5, 23]: 15
- Velvetleaf plant response rating [6, 20]: 35
- Velvetleaf plant response rating [6, 21]: 100
- Velvetleaf plant response rating [6, 22]: 100
- Plant response rating, Velvetleaf [6, 23]: 80
- Crabgrass, Large plant response rating [7, 20]: 65
- Crabgrass, Large plant response rating [7, 21]: 100
- Crabgrass, Large plant response rating [7, 22]: 100
- Plant response rating, Crabgrass, Large [7, 23]: 90
- Foxtail, Giant plant response rating [8, 20]: 20
- Foxtail, Giant plant response rating [8, 21]: 90
- Foxtail, Giant plant response rating [8, 22]: 100
- Plant response rating, Foxtail, Giant [8, 23]: 35
- Plant response rating, Ryegrass, Italian [9, 24]: 0
- Ryegrass, Italian plant response rating [9, 25]: 40
- Johnsongrass plant response rating [10, 20]: 15
- Johnsongrass plant response rating [10, 21]: 55
- Johnsongrass plant response rating [10, 22]: 85
- Plant response rating, Johnsongrass [10, 23]: 20
- Ryegrass, Italian plant response rating [11, 20]: 0
- Ryegrass, Italian plant response rating [11, 21]: 0
- Ryegrass, Italian plant response rating [11, 22]: 50
- Plant response rating, Ryegrass, Italian [11, 23]: 0
- Plant response rating, Kochia ([12]; 125 g ai/ha): 70
- Plant response rating, Kochia ([12]; 500 g ai/ha): 100
- Plant response rating, Galium ([13]; 125 g ai/ha): 90
- Plant response rating, Galium ([13]; 500 g ai/ha): 100
- Plant response rating, Kochia [14, 24]: 80
- Kochia plant response rating [14, 25]: 100
- Plant response rating, Ragweed [15, 24]: 40
- Ragweed plant response rating [15, 25]: 60
- Oilseed Rape plant response rating [16, 20]: 0
- Oilseed Rape plant response rating [16, 21]: 90
- Oilseed Rape plant response rating [16, 22]: 98
- Plant response rating, Oilseed Rape [16, 23]: 40
- Blackgrass plant response rating [17, 20]: 0
- Blackgrass plant response rating [17, 21]: 10
- Blackgrass plant response rating [17, 22]: 90
- Plant response rating, Blackgrass [17, 23]: 5
- Pigweed plant response rating [18, 20]: 50
- Pigweed plant response rating [18, 21]: 100
- Pigweed plant response rating [18, 22]: 100
- Plant response rating, Pigweed [18, 23]: 40
- Barnyardgrass plant response rating [19, 20]: 0
- Barnyardgrass plant response rating [19, 21]: 75
- Barnyardgrass plant response rating [19, 22]: 95
- Plant response rating, Barnyardgrass [19, 23]: 15
